Data: patent US8367716B2 (priority 2003, dated 2013)
Converted amounts (≈) assume the structure as drawn.

How the values were obtained:
S. aureus = assay: Biofilm formation on polystyrene microtitre plates (crystal violet, O.D.570); format: cell-based, Staphylococcus aureus; settings: DK825, 200 μM
Description: Effect of c-di-GMP on S. aureus biofilm formation. S. aureus strains were subcultured from glycerol stocks onto blood agar plates and incubated at 37° C. for 18 h. A single colony was inoculated into 5 ml TSB broth with a sterilized loop and incubated at 37° C. for 18 h with shaking at 250 rpm and until the O.D.660 reached 3.0 as measured spectrophotometrically using a spectrophotometer (SpectraMAX 250, Molecular Devices). Following incubation, the culture was diluted 1:250 with fresh TSB and a 200 μl of the diluted culture was transferred into wells of a flat-bottom polystyrene microtitre plate (Evergreen Scientific). […] In these biofilm experiments, similar volumes of 0.9% NaCl was added to a set of different wells representing the “untreated” control samples. The microtitre plates were then incubated statically at 37° C. for 24 h or 48 h. Following incubation, the supernatant was carefully discarded and the wells washed twice with 260 μl PBS. The plate was then kept for drying on a paper towel for 30 min after which 260 μl 0.1% crystal violet was added to each well and the plates incubated at room temperature for 30 min. The crystal violet was discarded and plate washed gently with water, the wells allowed to dry for 30 min then 260 μl DMSO was added to each well and gently agitated for 1 h and the O.D.570 measured by using a spectrophotometer (SpectraMAX 250, Molecular Devices). The results of these biofilm assays were based on data obtained from at least three independent colonies tested in duplicate.

S. aureus strain 15981 = settings: S. aureus 15981, hyperbiofilm human clinical strain; cited from earlier work
S. aureus strain DK825 = assay: microbe, parasite or virus in culture; format: cell-based, Staphylococcus aureus
Description: Antibiotic susceptibility testing. Susceptibility tests were performed in Sensititre microtitre plates according to the manufacturer's instructions (Microbiology Systems).

| Compound | antibiotic susceptibility (S. aureus strain 15981) | MIC (S. aureus strain DK825; Staphylococcus aureus, MRSA) [µg/mL] | further results |
| --- | --- | --- | --- |
| Nc1nc2c(ncn2[C@@H]2O[C@H](COP(=O)(O)O)[C@@H](O)[C@H]2O)c(=O)[nH]1 [5′-GMP, guanosine 5′-monophosphate, reference compound] | – | – | effect on biofilm formation (S. aureus): no effect |
| CC1(C)S[C@@H]2[C@H](NC(=O)[C@H](N)c3ccc(O)cc3)C(=O)N2[C@H]1C(=O)O [AMX] | susceptible | – | – |
| CC1(C)S[C@@H]2[C@H](NC(=O)[C@H](N)c3ccccc3)C(=O)N2[C@H]1C(=O)O [Ampicillin] | – | 4 (≈ 11.4 µM) | – |
| O=C(O)c1cn(C2CC2)c2cc(N3CCNCC3)c(F)cc2c1=O [Ciprofloxacin] | – | > 2 | – |
| CC[C@H]1OC(=O)[C@H](C)[C@@H](O[C@H]2C[C@@](C)(OC)[C@@H](O)[C@H](C)O2)[C@H](C)[C@@H](O[C@@H]2O[C@H](C)C[C@H](N(C)C)[C@H]2O)[C@](C)(OC)C[C@@H](C)C(=O)[C@H](C)[C@@H](O)[C@]1(C)O [Clarithromycin] | – | > 4 | – |
| CCC[C@@H]1C[C@@H](C(=O)N[C@@H]([C@H]2O[C@H](SC)[C@H](O)[C@@H](O)[C@H]2O)[C@H](C)Cl)N(C)C1 [Clindamycin] | – | > 2 | – |
| C[C@H]1c2cccc(O)c2C(O)=C2C(=O)[C@]3(O)C(O)=C(C(N)=O)C(=O)[C@@H](N(C)C)[C@@H]3[C@@H](O)[C@@H]21 [DOX] | susceptible | – | – |
| CC[C@H]1OC(=O)[C@H](C)[C@@H](O[C@H]2C[C@@](C)(OC)[C@@H](O)[C@H](C)O2)[C@H](C)[C@@H](O[C@@H]2O[C@H](C)C[C@H](N(C)C)[C@H]2O)[C@](C)(O)C[C@@H](C)C(=O)[C@H](C)[C@@H](O)[C@]1(C)O [Erythromycin] | susceptible | > 4 | – |
| C[C@@H]1O[C@@H]1P(=O)(O)O [FOF] | susceptible | – | – |
| C[C@H]1COc2c(N3CCN(C)CC3)c(F)cc3c(=O)c(C(=O)O)cn1c23 [Levofloxacin] | – | 2 (≈ 5.53 µM) | – |
| COc1cccc(OC)c1C(=O)N[C@@H]1C(=O)N2[C@@H]1SC(C)(C)[C@@H]2C(=O)O [MET] | susceptible | – | – |
| COc1c(N2C[C@@H]3CCCN[C@@H]3C2)c(F)cc2c(=O)c(C(=O)O)cn(C3CC3)c12 [Moxifloxacin] | – | 2 (≈ 4.98 µM) | – |
| Cc1onc(-c2ccccc2)c1C(=O)N[C@@H]1C(=O)N2[C@@H]1SC(C)(C)[C@@H]2C(=O)O [Oxacillin] | – | > 2 | – |
| CO[C@H]1/C=C/O[C@@]2(C)Oc3c(C)c(O)c4c(O)c(c(/C=N/N5CCN(C)CC5)c(O)c4c3C2=O)NC(=O)/C(C)=C\C=C\[C@H](C)[C@H](O)[C@@H](C)[C@@H](O)[C@@H](C)[C@H](OC(C)=O)[C@@H]1C [Rifampin] | – | > 2 | – |
| CN[C@H](CC(C)C)C(=O)N[C@H]1C(=O)N[C@@H](CC(N)=O)C(=O)N[C@H]2C(=O)N[C@H]3C(=O)N[C@H](C(=O)N[C@H](C(=O)O)c4cc(O)cc(O)c4-c4cc3ccc4O)[C@H](O)c3ccc(c(Cl)c3)Oc3cc2cc(c3O[C@@H]2O[C@H](CO)[C@@H](O)[C@H](O)[C@H]2O[C@H]2C[C@](C)(N)[C@H](O)[C@H](C)O2)Oc2ccc(cc2Cl)[C@H]1O [Vancomycin] | susceptible | < 0.5 | – |
| Nc1nc2c(ncn2[C@@H]2O[C@@H]3COP(=O)(O)O[C@H]3[C@H]2O)c(=O)[nH]1 [cGMP, guanosine 3′, 5′-cyclic monophosphate, reference compound] | – | – | reduction of biofilm formation (S. aureus; 24 h): ~40% |
| Penicillin | – | – | MIC (S. aureus strain DK825; S. aureus DK825 (MRSA)): > 8 µg/mL |
